Tests used:
[1] = molecular target: T1, Tyrosine-protein kinase BTK (Homo sapiens, UniProt Q06187); test: Inhibition of BTK (unknown origin) after 1 hr by TR-FRET analysis
[2] = molecular target: T1, Tyrosine-protein kinase BTK; test: Inhibition of BTK in human Ramos cells after 20 mins by fluorescence assay; assay type: cell-based

T1 sequence (Q06187 whole entry): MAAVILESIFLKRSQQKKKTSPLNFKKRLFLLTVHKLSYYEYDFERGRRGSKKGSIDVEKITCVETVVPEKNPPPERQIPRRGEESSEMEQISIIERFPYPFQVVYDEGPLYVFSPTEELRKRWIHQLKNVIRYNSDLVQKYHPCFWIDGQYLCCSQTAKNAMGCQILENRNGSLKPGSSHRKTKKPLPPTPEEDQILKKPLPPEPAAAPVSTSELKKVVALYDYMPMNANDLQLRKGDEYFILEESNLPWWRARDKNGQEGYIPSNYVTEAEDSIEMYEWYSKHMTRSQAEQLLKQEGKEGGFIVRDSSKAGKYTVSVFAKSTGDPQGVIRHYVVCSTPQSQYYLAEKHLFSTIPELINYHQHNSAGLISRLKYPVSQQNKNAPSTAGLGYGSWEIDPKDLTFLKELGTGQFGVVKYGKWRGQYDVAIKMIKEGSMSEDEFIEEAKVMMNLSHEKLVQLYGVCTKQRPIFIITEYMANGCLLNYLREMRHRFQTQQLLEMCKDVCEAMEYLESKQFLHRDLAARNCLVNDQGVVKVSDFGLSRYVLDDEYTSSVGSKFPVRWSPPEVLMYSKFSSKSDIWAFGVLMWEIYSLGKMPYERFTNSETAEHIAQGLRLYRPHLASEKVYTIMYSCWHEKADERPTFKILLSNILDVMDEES

Row | SMILES | IC50 [1] | IC50 [2]
1 | O=c1c2c(F)cc(C3CC3)cc2ccn1-c1cccc(-c2ncnc3[nH]c(-c4ccc(CN5CCOCC5)cc4)cc23)c1CO | 63.6 nM | 12 nM
2 | O=c1c2c(F)cc(C3CC3)cc2ccn1-c1cccc(-c2ncnc3[nH]c(C4=CCSCC4)cc23)c1CO | 67.1 nM | 46 nM
3 | O=c1c2c(F)cc(C3CC3)cc2ccn1-c1cccc(-c2ncnc3[nH]c(-c4ccc(O)cc4)cc23)c1CO | 73.9 nM | 211 nM
4 | CC(=O)N1CC=C(c2cc3c(-c4cccc(-n5ccc6cc(C7CC7)cc(F)c6c5=O)c4CO)ncnc3[nH]2)CC1 | 15.3 nM | 21.4 nM
5 | O=C(c1ccc(-c2cc3c(-c4cccc(-n5ccc6cc(C7CC7)cc(F)c6c5=O)c4CO)ncnc3[nH]2)cc1)N1CCOCC1 | 18.2 nM | 10 nM
6 | Nc1cccc(-c2cc3c(-c4cccc(-n5ccc6cc(C7CC7)cc(F)c6c5=O)c4CO)ncnc3[nH]2)c1 | 136 nM | 65 nM
7 | CN(C)C(=O)c1cccc(-c2cc3c(-c4cccc(-n5ccc6cc(C7CC7)cc(F)c6c5=O)c4CO)ncnc3[nH]2)c1 | 69 nM | 87.3 nM
8 | CN(C)C(=O)N1CC=C(c2cc3c(-c4cccc(-n5ccc6cc(C7CC7)cc(F)c6c5=O)c4CO)ncnc3n2C)CC1 | > 5000 nM | > 5000 nM
9 | CN(C)C(=O)N1CC=C(c2cc3c(-c4cccc(-n5ccc6cc(C7CC7)cc(F)c6c5=O)c4CO)ncnc3[nH]2)CC1 | 7 nM | 21.6 nM
10 | O=C(N1CC=C(c2cc3c(-c4cccc(-n5ccc6cc(C7CC7)cc(F)c6c5=O)c4CO)ncnc3[nH]2)CC1)N1CCOCC1 | 4.8 nM | 17 nM
11 | CNC(=O)N1CC=C(c2cc3c(-c4cccc(-n5ccc6cc(C7CC7)cc(F)c6c5=O)c4CO)ncnc3[nH]2)CC1 | 25.2 nM | 51.3 nM
12 | COc1ccc(-c2cc3c(-c4cccc(-n5ccc6cc(C7CC7)cc(F)c6c5=O)c4CO)ncnc3[nH]2)cn1 | 197 nM | 74 nM
13 | COc1ccc(-c2cc3c(-c4cccc(-n5ccc6cc(C7CC7)cc(F)c6c5=O)c4CO)ncnc3[nH]2)cc1 | 58.3 nM | 38.8 nM
14 | O=c1c2c(F)cc(C3CC3)cc2ccn1-c1cccc(-c2ncnc3[nH]c(C4=CCN(c5ncccn5)CC4)cc23)c1CO | 45.3 nM | 69.7 nM
15 | CN(C)Cc1ccc(-c2cc3c(-c4cccc(-n5ccc6cc(C7CC7)cc(F)c6c5=O)c4CO)ncnc3[nH]2)cc1 | 31.6 nM | 33 nM
16 | CN(C)C(=O)N1CCC(c2cc3c(-c4cccc(-n5ccc6cc(C7CC7)cc(F)c6c5=O)c4CO)ncnc3[nH]2)CC1 | 574 nM | 1650 nM

Row | SMILES | IC50 [1] | IC50 [2]
17 | CS(=O)(=O)N1CC=C(c2cc3c(-c4cccc(-n5ccc6cc(C7CC7)cc(F)c6c5=O)c4CO)ncnc3[nH]2)CC1 | 15.8 nM | 7.9 nM
18 | O=c1c2c(F)cc(C3CC3)cc2ccn1-c1cccc(-c2ncnc3[nH]c(C4=CCCCC4)cc23)c1CO | 77.8 nM | 350 nM
19 | CC(=O)c1ccc(-c2cc3c(-c4cccc(-n5ccc6cc(C7CC7)cc(F)c6c5=O)c4CO)ncnc3[nH]2)cc1 | 41.7 nM | 49 nM
20 | CN1CC=C(c2cc3c(-c4cccc(-n5ccc6cc(C7CC7)cc(F)c6c5=O)c4CO)ncnc3[nH]2)CC1 | 57.1 nM | 125 nM
21 | CN(C)S(=O)(=O)N1CC=C(c2cc3c(-c4cccc(-n5ccc6cc(C7CC7)cc(F)c6c5=O)c4CO)ncnc3[nH]2)CC1 | 16.5 nM | 26 nM
22 | O=c1c2c(F)cc(C3CC3)cc2ccn1-c1cccc(-c2ncnc3[nH]c(-c4cc[nH]n4)cc23)c1CO | 38.8 nM | 47 nM
23 | Cn1ccc(-c2cc3c(-c4cccc(-n5ccc6cc(C7CC7)cc(F)c6c5=O)c4CO)ncnc3[nH]2)n1 | 21.3 nM | 38 nM
24 | CN(C)C(=O)c1cc2c(-c3cccc(-n4ccc5cc(C6CC6)cc(F)c5c4=O)c3CO)ncnc2[nH]1 | 1360 nM | 1560 nM
25 | O=c1c2c(F)cc(C3CC3)cc2ccn1-c1cccc(-c2ncnc3[nH]c(C4=CCNCC4)cc23)c1CO | 32.5 nM | 96.5 nM
26 | CN(C)C(=O)c1ccc(-c2cc3c(-c4cccc(-n5ccc6cc(C7CC7)cc(F)c6c5=O)c4CO)ncnc3[nH]2)cc1 | 17.8 nM | 15 nM
27 | CC(=O)c1cc(-c2cc3c(-c4cccc(-n5ccc6cc(C7CC7)cc(F)c6c5=O)c4CO)ncnc3[nH]2)cs1 | 119 nM | 58 nM
28 | O=c1c2c(F)cc(C3CC3)cc2ccn1-c1cccc(-c2ncnc3[nH]c(-c4ccccc4)cc23)c1CO | 90.3 nM | 79 nM
29 | O=C(c1ccc(-c2cc3c(-c4cccc(-n5ccc6cc(C7CC7)cc(F)c6c5=O)c4CO)ncnc3[nH]2)cc1)N1CCCCC1 | 50.8 nM | 65 nM
30 | O=c1c2c(F)cc(C3CC3)cc2ccn1-c1cccc(-c2ncnc3[nH]c(C4=CCN(C5COC5)CC4)cc23)c1CO | 24.8 nM | 11 nM
31 | O=c1c2c(F)cc(C3CC3)cc2ccn1-c1cccc(-c2ncnc3[nH]ccc23)c1CO | 1570 nM | > 5000 nM
